For one compound, gelation of acyline results are on record in patent publication US8999383B2, “Compositions of GnRH related compounds and processes of preparation” (Merrion Research III Limited, priority 2008, dated 2015).

Non-standard residues stand in square brackets, D forms with d. Residues, ends and D or L forms follow the SMILES beside them. dPhe(4-NH2) = Nc1ccc(C[C@@H](N)C(=O)O)cc1; dPhe(4-Cl) = N[C@H](Cc1ccc(Cl)cc1)C(=O)O; Phe(4-NH2) = Nc1ccc(C[C@H](N)C(=O)O)cc1; d2Nal = N[C@H](Cc1ccc2ccccc2c1)C(=O)O; Lys(iPr) = CC(C)NCCCC[C@H](N)C(=O)O; d3Pal = N[C@H](Cc1cccnc1)C(=O)O

The nature of the data set: Gelation of acyline in pH 6.8 buffer with sodium caprate and Tween 80 (filtration, reverse phase HPLC). The format is physicochemical. Here is the method: Different concentrations of acyline composition are prepared by adding acyline to pH 6.8 buffer solution either at room temperature or 37° C. All acyline solutions contain 0.6 mg/mL sodium caprate (sodium caprate is referred as C10 in the figures). All samples are centrifuged and filtered prior to analysis. Samples are analyzed by reverse phase HPLC with UV detection. 10 mg acyline is transferred into […] volumetric flask. A pH 6.8 buffer solution is preheated to 37° C. Then, 100 mL pre-heated buffer solution and 0.6 mg/mL sodium caprate is added to the flask to prepare a 0.1 mg/mL acyline sample. In a similar manner, Tween 80 is added to prepare a 0.1 mg/mL acyline solution with 1% Tween 80. Samples are shaken in a temperature controlled water bath at 37° C. 5 mL samples are taken at 1, 5, 10, 15, 20, 30 and 120 minutes after mixing acyline with the buffer solution. Samples are filtered immediately through 0.45 μm filters and the first 3 mL is discarded. Filtered samples are analyzed, undiluted, by reverse phase HPLC with UV detection. All samples are prepared in duplicate and the concentration was obtained for the analysis from the mean of the duplicates. The result of comparison of 1% and 0% Tween 80 at 0.1 mg/mL acyline sample is graphically recorded in FIG. 5. […] A similar experimental procedure as Example 4 is used to prepare acyline sample for example 5. The result of comparison of 5 mg/mL, 1 mg/mL, 0.1 mg/mL and 1% Tween in phosphate buffer containing 0.6 mg/mL of sodium caprate and 0.1 mg/mL acyline is graphically recorded in FIG. 6. […] A similar experimental procedure as Example 4 is used to prepare acyline sample for example 6. The result of comparison of 1% and 1 mg/mL Tween 80 in 0.1 and 0.01 mg/mL acyline sample is graphically recorded in FIG. 7. […] A similar experimental procedure as Example 4 is used to prepare acyline sample for example 7. The result of comparison of 0.01 mg/mL acyline samples having 0.1%, 0.5% and 1% Tween 80 is graphically recorded in FIG. 8.

For the compound `CC(=O)Nc1ccc(C[C@H](NC(=O)[C@H](CO)NC(=O)[C@@H](Cc2cccnc2)NC(=O)[C@@H](Cc2ccc(Cl)cc2)NC(=O)[C@@H](Cc2ccc3ccccc3c2)NC(C)=O)C(=O)N[C@H](Cc2ccc(NC(C)=O)cc2)C(=O)N[C@@H](CC(C)C)C(=O)N[C@@H](CCCCNC(C)C)C(=O)N2CCC[C@H]2C(=O)N[C@H](C)C(N)=O)cc1` [acyline, Ac-D2Nal-D4Cpa-D3Pal-Ser4Aph(Ac)-D4Aph(Ac)-Leu-ILys-Pro-DAla-NH2] (Ac-[d2Nal][dPhe(4-Cl)][d3Pal]S[Phe(4-NH2)](Ac)[dPhe(4-NH2)](Ac)L[Lys(iPr)]P[dA]-NH2), the gelation of acyline entry runs as follows: (0.01 mg/mL acyline sample, 1% Tween 80 (versus 0.1% and 0.5%)) “significantly reduces the gelation”; (0.1 mg/mL acyline, pH 6.8 buffer, 37° C., 0.6 mg/mL sodium caprate alone (below CMC), 0% Tween 80) “insufficient to reduce the gelation”; (0.1 mg/mL and 0.01 mg/mL acyline sample, 1% Tween 80) “reduces gelation”.
